Source: ChEMBL document CHEMBL4177573 (Bioorg Med Chem, 2017)
pEC50: −log10 of the molar value. The source made the active and inactive calls. The rule behind the calls is not given here.

Assays:
Mus musculus [1] = experiment: Antiobesity activity in DIO C57BL/6J mouse assessed as reduction in mesenteric fat weight at 0.003 to 0.03 mg/kg, sc for 2 weeks dosed as continuous administration by infusion of osmotic pumps relative to untreated control; format: functional, organism-based
[2] = MRT in C57BL/6J mouse at 1 mg/kg, sc measured during 5 mins to 24 hrs by LC/MS/MS method; format: ADME, organism-based; conditions: in vivo
Mus musculus [3] = experiment: Anorectic activity in overnight fasted C57BL/6J mouse assessed as inhibition of food intake at 10 nmol/kg, sc followed by re-feeding post dose and measured for 2 hrs; format: functional, organism-based
Mus musculus [4] = experiment: Antiobesity activity in DIO C57BL/6J mouse assessed as reduction in body weight at 0.003 to 0.03 mg/kg, sc for 2 weeks dosed as continuous administration by infusion of osmotic pumps relative to untreated control; format: functional, organism-based
Mus musculus [5] = experiment: Anorectic activity in C57BL/6J mouse assessed as inhibition of food intake at 0.03 mg/kg/day, sc for 3 days dosed as continuous administration by infusion using osmotic pump; format: functional; conditions: 72 h
Mus musculus [6] = experiment: Anorectic activity in C57BL/6J mouse assessed as inhibition of food intake at 0.3 mg/kg/day, sc dosed as […] and measured after 24 hrs; format: functional
Mus musculus [7] = experiment: Anorectic activity in overnight fasted Y2R-/- C57BL/6J mouse assessed as inhibition of food intake at 10 nmol/kg, sc followed by re-feeding post dose and measured for 2 hrs; format: functional, organism-based
Mus musculus [8] = experiment: Anorectic activity in DIO C57BL/6J mouse assessed as reduction in cumulative food intake at 0.01 mg/kg, sc for 2 weeks dosed as continuous administration by infusion of osmotic pumps relative to untreated control; format: functional, organism-based
Mus musculus [9] = experiment: Antiobesity activity in DIO C57BL/6J mouse assessed as reduction in perirenal weight at 0.003 to 0.03 mg/kg, sc for 2 weeks dosed as continuous administration by infusion of osmotic pumps relative to untreated control; format: functional, organism-based
Mus musculus [10] = experiment: Anorectic activity in C57BL/6J mouse assessed as inhibition of food intake at 0.03 to 1 mg/kg/day, sc for 3 days dosed as continuous administration by infusion using osmotic pump; format: functional, organism-based
[11] = target: Neuropeptide Y receptor type 4 (Rattus norvegicus, UniProt Q63447); experiment: Agonist activity at rat neuropeptide Y4 receptor by [35S]GTPgammaS binding assay; format: functional
Mus musculus [12] = experiment: Anorectic activity in DIO C57BL/6J mouse assessed as reduction in cumulative food intake at 0.03 mg/kg, sc for 2 weeks dosed as continuous administration by infusion of osmotic pumps relative to 0.3 mg/kg/day, sc PYY(3-36); format: functional
[13] = target: T1, Neuropeptide Y receptor type 2 (Rattus norvegicus, UniProt Q9ERC0); experiment: Agonist activity at rat neuropeptide Y2 receptor by [35S]GTPgammaS binding assay; format: functional
T1 sequence (Q9ERC0 whole entry): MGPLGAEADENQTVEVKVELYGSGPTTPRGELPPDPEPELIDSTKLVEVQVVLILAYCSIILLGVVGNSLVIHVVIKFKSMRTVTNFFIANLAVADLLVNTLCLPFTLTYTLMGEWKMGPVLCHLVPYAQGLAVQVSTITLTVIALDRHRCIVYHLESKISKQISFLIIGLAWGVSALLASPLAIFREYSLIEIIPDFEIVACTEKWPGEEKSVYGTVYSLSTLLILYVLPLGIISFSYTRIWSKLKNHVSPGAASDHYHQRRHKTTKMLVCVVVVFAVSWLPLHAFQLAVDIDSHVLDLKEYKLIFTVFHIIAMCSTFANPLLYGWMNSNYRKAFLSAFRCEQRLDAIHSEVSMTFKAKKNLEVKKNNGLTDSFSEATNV

Mus musculus [14] = experiment: Antiobesity activity in DIO C57BL/6J mouse assessed as reduction in body weight at 0.01 mg/kg, sc for 2 weeks dosed as continuous administration by infusion of osmotic pumps; format: functional; conditions: 336 h
Mus musculus [15] = experiment: Antiobesity activity in DIO C57BL/6J mouse assessed as reduction in liver weight at 0.003 to 0.03 mg/kg, sc for 2 weeks dosed as continuous administration by infusion of osmotic pumps relative to untreated control; format: functional, organism-based
[16] = Bioavailability in C57BL/6J mouse at 1 mg/kg, sc measured during 5 mins to 24 hrs by LC/MS/MS method; format: ADME, organism-based; conditions: in vivo
Mus musculus [17] = experiment: Antiobesity activity in DIO C57BL/6J mouse assessed as reduction in body weight at 0.03 mg/kg, sc for 2 weeks dosed as continuous administration by infusion of osmotic pumps relative to untreated control; format: functional; conditions: 336 h
[18] = Volume of distribution at steady state in C57BL/6J mouse at 1 mg/kg, iv measured during 5 mins to 24 hrs by LC/MS/MS method; format: ADME, organism-based; conditions: in vivo, read-out: Vdss
Mus musculus [19] = experiment: Antiobesity activity in DIO C57BL/6J mouse assessed as reduction in body weight at 1 mg/kg, sc […] for 2 weeks dosed by infusion of osmotic pumps; format: functional; conditions: 336 h
[20] = AUC (0 to 24 hrs) in C57BL/6J mouse at 1 mg/kg, sc measured during 5 mins to 24 hrs by LC/MS/MS method; format: ADME, organism-based; set-up: time < 24 hr, dose 1 mg/kg, route subcutaneous; conditions: in vivo
[21] = target: T2, Neuropeptide Y receptor type 2 (Homo sapiens, UniProt P49146); experiment: Agonist activity at human neuropeptide Y2 receptor expressed in CHO cell membranes assessed as stimulation of [35S]GTPgammaS binding incubated for 120 mins by liquid scintillation counting method; format: functional
T2 sequence (P49146 whole entry): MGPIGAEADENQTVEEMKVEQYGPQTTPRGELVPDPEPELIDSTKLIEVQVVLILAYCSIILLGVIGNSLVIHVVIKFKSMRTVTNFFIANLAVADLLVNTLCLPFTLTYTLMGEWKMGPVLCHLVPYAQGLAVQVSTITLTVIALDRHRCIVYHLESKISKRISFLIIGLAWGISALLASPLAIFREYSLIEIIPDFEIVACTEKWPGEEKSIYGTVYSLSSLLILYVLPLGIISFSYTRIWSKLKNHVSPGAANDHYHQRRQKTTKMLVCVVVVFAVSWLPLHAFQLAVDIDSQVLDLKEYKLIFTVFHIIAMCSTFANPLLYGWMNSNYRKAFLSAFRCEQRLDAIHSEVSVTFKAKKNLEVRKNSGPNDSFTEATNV

[22] = AUC (0 to 24 hrs) in C57BL/6J mouse at 1 mg/kg, iv measured during 5 mins to 24 hrs by LC/MS/MS method; format: ADME, organism-based; set-up: dose 1 mg/kg, time < 24 hr, route intravenous; conditions: in vivo
[23] = Total clearance in C57BL/6J mouse at 1 mg/kg, iv measured during 5 mins to 24 hrs by LC/MS/MS method; format: ADME, organism-based; conditions: in vivo
Mus musculus [24] = experiment: Drug level in C57BL/6J mouse at 1 mg/kg, iv measured during 5 mins to 24 hrs by LC/MS/MS method; format: ADME, organism-based; conditions: in vivo, read-out: Drug uptake
[25] = Cmax in C57BL/6J mouse at 1 mg/kg, sc measured during 5 mins to 24 hrs by LC/MS/MS method; format: ADME, organism-based; set-up: dose 1 mg/kg, route subcutaneous; conditions: in vivo
Mus musculus [26] = experiment: Antiobesity activity in DIO C57BL/6J mouse assessed as reduction in body weight at 0.01 mg/kg, sc for 2 weeks dosed as continuous administration by infusion of osmotic pumps relative to untreated control; format: functional; set-up: scale not given: the % may be the effect or the level left

Neuropeptide Y receptor type 4, sequence (Q63447 whole entry, the tested form may be a part): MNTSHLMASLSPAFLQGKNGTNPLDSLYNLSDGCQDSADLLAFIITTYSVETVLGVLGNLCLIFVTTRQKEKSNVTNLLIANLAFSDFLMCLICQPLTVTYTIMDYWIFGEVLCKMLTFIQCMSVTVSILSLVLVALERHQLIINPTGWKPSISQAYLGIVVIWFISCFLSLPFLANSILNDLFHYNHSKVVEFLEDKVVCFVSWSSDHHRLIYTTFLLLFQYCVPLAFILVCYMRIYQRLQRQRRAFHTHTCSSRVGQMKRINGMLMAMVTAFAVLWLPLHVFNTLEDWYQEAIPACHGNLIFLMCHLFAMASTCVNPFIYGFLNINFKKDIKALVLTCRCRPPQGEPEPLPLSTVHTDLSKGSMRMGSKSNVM

Question: What does the source list for CC[C@](C)(NC(=O)[C@H]1C[C@H](O)CN1C(=O)[C@H](CO)NC(=O)c1c[nH]cn1)C(=O)N[C@@H](Cc1ccncc1)C(=O)N[C@@H](CC1CCCCC1)C(=O)N[C@@H](CC(C)(C)C)C(=O)N[C@@H](CC(N)=O)C(=O)N[C@@H](CCCCN)C(=O)NC(C)(C)C(=O)N[C@H](C(=O)N[C@@H](CCCNC(=N)N)C(=O)N[C@@H](CCC(N)=O)C(=O)N[C@@H](CCCNC(=N)N)C(=O)N[C@@H](CC1CCCCC1)C(N)=O)[C@@H](C)O?
Answer: Activity (Mus musculus [1]): Active; MRT [2]: 33.6 min; Activity (Mus musculus [3]): Active; Activity (Mus musculus [4]): Dose-dependent effect; inhibition in vivo at 0.03 mg/kg/day (Mus musculus [5]): 52%; inhibition in vivo at 0.3 mg/kg/day (Mus musculus [6]): 22%; Activity (Mus musculus [7]): inactive; Activity (Mus musculus [8]): Active; Activity (Mus musculus [9]): Active; Activity (Mus musculus [10]): Dose-dependent effect; pEC50 [11]: < 6.00; fold change (FC) (Mus musculus [12]): 30; pEC50 [13]: 10.42; inhibition in vivo at 0.01 mg/kg (Mus musculus [14]): 8.9%; Activity (Mus musculus [15]): Active; bioavailability [16]: 60.2%; inhibition in vivo at 0.03 mg/kg (Mus musculus [17]): 15.1%; Vd [18]: 0.293 L/kg; inhibition in vivo at 1 mg/kg (Mus musculus [19]): 7.6%; AUC(0-t) at 24 h [20]: 0.347 µM·h; pEC50 [21]: 9.82; AUC(0-t) at 24 h [22]: 0.577 µM·h; clearance [23]: 14.2 mL/min/kg; concentration (Mus musculus [24]): 2060 nM; Cmax [25]: 452 nM; Activity (Mus musculus [26]): 8.3%
